# Experimental data: patent US20170204038A1, “3-(4-ISOBUTYL-2-METHYLPHENYL) PROPANAL AS PERFUME INGREDIENT” (Givaudan, S.A., priority 2013, published 2017)
# Assays:
# [1] = Odour Value (ratio of vapour pressure to detection threshold concentration)
# Text: The compound of formula (I) is a particularly impactful perfume ingredient. The impact that a perfume ingredient exerts is related to its Odour Value. Odour Value is the ratio of vapour pressure to detection threshold concentration.
# rat hepatocytes = experiment: In vitro metabolism study in rat hepatocytes in suspension (GC-MS / LC-MS); conditions: for Residual test compound: male, Sprague-Dawley, rat, 4 h, 100 μM
# Method: In order to study in vitro metabolism in rat hepatocytes Lilial™ and the compound of the present invention are incubated in presence of rat hepatocytes in suspension. Decrease of Lilial™ and the compound of the present invention, and formation of the corresponding benzoic acid derivative may be analysed by GC-MS.
# Cryopreserved hepatocytes from male rats (Sprague Dawley; Lifetechnologies) were defrozen, washed in Cyropreserved Hepatocytes Recovery Medium (CHRM; Lifetechnologies) and suspended in Williams E Medium (WEM; Lifetechnologies). Lilial™, or the compound of formula (I) (final concentration: 100 μM) were added to the cells (1×10^6 viable cells/ml) and suspensions were incubated up to 4 hours at 37° C. on a shaker in duplicate. Metabolism of testosterone was monitored as positive control. Decrease of the test compounds and formation of the corresponding benzoic acid derivative was determined by GC-MS analysis of methyl-esters formed after derivatisation with trimethylsilyl-diazomethane (Sigma-Aldrich) in methanol. The test compounds react with diazomethane yielding a methyl-ketone which was used for the quantification of Lilial™ and the compound of formula (I). Metabolism was stopped with ice cold 1 M HCl, samples were extracted with tert-butyl methyl ether (MTBE) and analysed by GC-MS. Incubations containing testosterone as control were also stopped with ice cold 1 M HCl, centrifuged to separate the cells, filtrated and the decrease of testosterone analysed by LC-MS. To quantify decrease of the test substances and formation of benzoic acid metabolites, calibration curves of reference materials (Lilial™ and the compound of formula (I), tert-butyl benzoic acid (Fluka) was prepared in hepatocyte incubation medium and analysed like the hepatocyte samples.
# mice = conditions: cited from earlier work
# guinea-pigs = conditions: cited from earlier work
# primates = conditions: cited from earlier work
# male rats [2] = conditions: rat, in vivo; cited from earlier work
# dogs = conditions: dog, in vivo; cited from earlier work
# glucose synthesis = conditions: in vitro; cited from earlier work
# fatty acid synthesis = conditions: in vitro; cited from earlier work
# male rats [3] = conditions: cited from earlier work
structure (smiles),measurement,setting,value
"Cc1cc(CC(C)C)ccc1CCC=O [Compound of formula (I), 3-(4-isobutyl-2-methylphenyl)propanal]",Odour Value,[1],"559,071"
same,Residual test compound,rat hepatocytes,0 µM
"CC(C=O)Cc1ccc(C(C)C)cc1 (centres unmarked) [Cyclamen aldehyde, 3-p-cumenyl-2-methylpropionaldehyde]",Odour Value,[1],"21,986"
"CC(C=O)Cc1ccc(C(C)(C)C)cc1 (centres unmarked) [Lilial™, 3-(4-tert-butylphenyl)-2-methylpropanal]",Odour Value,[1],"32,978"
same,Residual test compound,rat hepatocytes,0 µM
same,effects in studies with mice,mice,No effects
same,effects in studies with guinea-pigs,guinea-pigs,No effects
same,effects in studies with primates,primates,No effects
same,toxic effects on the reproductive organs,male rats [2],toxic effects
same,toxic effects on the reproductive organs,dogs,toxic effects
CC(C)(C)c1ccc(C(=O)O)cc1 [tert-butyl benzoic acid],inhibition of glucose synthesis,glucose synthesis,inhibit
same,inhibition of fatty acid synthesis,fatty acid synthesis,inhibit
same,testicular effects,male rats [3],cause testicular effects
C[C@]12CC[C@H]3[C@@H](CCC4=CC(=O)CC[C@@]43C)[C@@H]1CC[C@@H]2O [testosterone],Decrease of testosterone (positive control),"rat hepatocytes; rat hepatocytes, LC-MS",rapid decrease
